MIC and melting point data for eleven compounds are collected here from patent publication US6951863B2, “Pyridoarylphenly oxazolidinone antibacterials, and related compositions and methods” (Ortho-McNeil Pharmaceutical, Inc., priority 2001, dated 2005).

Data set [1] deals with E. faecium OC3312. Description: MIC, microdilution broth method (NCCLS). In kind it is cell-based. The note with it: E. faecium OC3312 (vancomycin-resistant enterococcus); 35° C., 16-20 hours; read-out: MIC (μg/mL) in Test Strains E. faecium OC3312. The protocol: (§1) Minimal inhibitory concentration (MIC) has been an indicator of in vitro antibacterial activity widely used in the art. The in vitro antimicrobial activity of the compounds was determined by the microdilution broth method following the test method from the National Committee for Laboratory Standards (NCCLS). This method is described in the NCCLS Document M7-A4, Vol. 17, No. 2, “Methods for Dilution Antimicrobial Susceptibility Test for Bacteria that Grow Aerobically—Fourth Edition”, which is incorporated herein by reference.
(§2) In this method two-fold serial dilutions of drug in cation adjusted Mueller-Hinton broth are added to wells in microdilution trays. The test organisms are prepared by adjusting the turbidity of actively growing broth cultures so that the final concentration of test organism after it is added to the wells is approximately 5×10^4 CFU/well.
(§3) Following inoculation of the microdilution trays, the trays are incubated at 35° C. for 16-20 hours and then read. […] The amount of growth in the wells containing the test compound is compared with the amount of growth in the growth-control wells (no test compound) used in each tray. As set forth in Table 1, some compounds of the present invention were tested against a variety of pathogenic bacteria resulting in a range of activities, from 1 to >128 μg/mL depending on the organism tested. S. aureus OC2878 is a MRSA and E. faecium OC3312 is a vancomycin-resistant enterococcus.

The subject of data set [2] is S. aureus OC2878. The experiment in a line: MIC, microdilution broth method (NCCLS). In kind it is cell-based. As to conditions: Staphylococcus aureus; S. aureus OC2878 (MRSA); 35° C., 16-20 hours; read-out: MIC (μg/mL) in Test Strains S. aureus OC2878. The protocol:
as §1, §2, §3

Data set [3] has as its system S. aureus OC4172. Description: MIC, microdilution broth method (NCCLS). The data set is classed as cell-based. The note with it: Staphylococcus aureus, 35° C., 16-20 hours, read-out: MIC (μg/mL) in Test Strains S. aureus OC4172. The method, then: as §1, §2, §3
Background: Broth dilution looks for growth in wells or tubes with falling amounts of substance.

Structures are written as SMILES. In brackets after ≈: the same amount, converted by molar mass.

As to `O=C1O[C@@H](CO)CN1c1ccc(N2CCc3ccccc3C2)c(F)c1` [Compound 1, 2-oxazolidinone, 3-[4-(3,4-dihydro-2(1H)-isoquinolinyl)-3-fluorophenyl]-5-(hydroxymethyl)-, (5R)-], the MIC was above 128 µg/mL in data set [1], 32 µg/mL (≈ 93.5 µM) in data set [2] and 128 µg/mL (≈ 374 µM) in data set [3].

Turning to `CC(=O)NC[C@H]1CN(c2ccc(N3CCc4ccccc4C3)c(F)c2)C(=O)O1` [Compound 2, acetamide, N-[[(5S)-3-[4-(3,4-dihydro-2(1H)-isoquinolinyl)-3-fluorophenyl]-2-oxo-5-oxazolidinyl]methyl]-], the melting point was 131 to 134 °C. Besides, the MIC in data set [1] was found to be 8 µg/mL (≈ 20.9 µM). For the same compound, in data set [2], the MIC is 4 µg/mL (≈ 10.4 µM). Also, the MIC in data set [3] was determined as 8 µg/mL (≈ 20.9 µM).

In the case of `CC(=O)NC[C@H]1CN(c2ccc(N3CCc4ccncc4C3)c(F)c2)C(=O)O1` [Compound 3, acetamide, N-[[(5S)-3-[4-(3,4-dihydro-2,7-naphthyridin-2(1H)-yl)-3-fluorophenyl]-2-oxo-5-oxazolidinyl]methyl]-], the melting point is 141 to 144 °C (dec.). Moreover, the MIC in data set [1] was determined as 8 µg/mL (≈ 20.8 µM). In data set [2], the MIC turned out to be 4 µg/mL (≈ 10.4 µM). Besides, the MIC in data set [3] is 8 µg/mL (≈ 20.8 µM).

As for `CC(=O)NC[C@H]1CN(c2ccc(N3CCc4cnccc4C3=O)c(F)c2)C(=O)O1` [Compound 4, acetamide, N-[[(5S)-3-[4-(3,4-dihydro-1-oxo-2,6-naphthyridin-2(1H)-yl)-3-fluorophenyl]-2-oxo-5-oxazolidinyl]methyl]-], the MIC came to 32 µg/mL (≈ 80.3 µM) in data set [1], 16 µg/mL (≈ 40.2 µM) in data set [2] and 32 µg/mL (≈ 80.3 µM) in data set [3].

As for `CC(=O)NC[C@H]1CN(c2ccc(N3CCc4ncncc4C3)c(F)c2)C(=O)O1` [Compound 5, acetamide, N-[[(5S)-3-[4-(7,8-dihydropyrido[4,3-d]pyrimidin-6(5H)-yl)-3-fluorophenyl]-2-oxo-5-oxazolidinyl]methyl]-], the MIC came to 8 µg/mL (≈ 20.8 µM) in data set [1], 2 µg/mL (≈ 5.19 µM) in data set [2] and 4 µg/mL (≈ 10.4 µM) in data set [3].

On to `CC(=O)NC[C@H]1CN(c2ccc(N3CCc4nc(C)ncc4C3)c(F)c2)C(=O)O1` [Compound 6, acetamide, N-[[(5S)-3-[4-(7,8-dihydro-2-methylpyrido[4,3-d]pyrimidin-6(5H)-yl)-3-fluorophenyl]-2-oxo-5-oxazolidinyl]methyl]-], for which the MIC in data set [1] amounted to 8 µg/mL (≈ 20 µM); in data set [2], 2 µg/mL (≈ 5.01 µM); in data set [3] it was 4 µg/mL (≈ 10 µM).

On to `CC(=O)NC[C@H]1CN(c2ccc(N3CCc4nc(-c5csc(C)n5)ncc4C3)c(F)c2)C(=O)O1` [Compound 7, acetamide, N-[[(5S)-3-[4-[7,8-dihydro-2-(2-methyl-4-thiazolyl)pyrido[4,3-d]pyrimidin-6(5H)-yl]-3-fluorophenyl]-2-oxo-5-oxazolidinyl]methyl]-], for which the MIC in data set [1], in data set [2] and in data set [3] was 8 µg/mL (≈ 16.6 µM) each time.

As to `CC(=O)NC[C@H]1CN(c2ccc(N3CCc4nc(-c5ccncc5)ncc4C3)c(F)c2)C(=O)O1` [Compound 8, acetamide, N-[[(5S)-3-[4-[7,8-dihydro-2-(4-pyridinyl)pyrido[4,3-d]pyrimidin-6(5H)-yl]-3-fluorophenyl]-2-oxo-5-oxazolidinyl]methyl]-], the MIC in data set [1] came to 4 µg/mL (≈ 8.65 µM); in data set [2] it was 2 µg/mL (≈ 4.32 µM); in data set [3] it was 2 µg/mL (≈ 4.32 µM).

Take `CC(=O)NC[C@H]1CN(c2ccc(N3CCc4nc(-c5cnccn5)ncc4C3)c(F)c2)C(=O)O1` [Compound 9, acetamide, N-[[(5S)-3-[4-(7,8-dihydro-2-pyrazinylpyrido[4,3-d]pyrimidin-6(5H)-yl)-3-fluorophenyl]-2-oxo-5-oxazolidinyl]methyl]-]: the MIC was found to be 8 µg/mL (≈ 17.3 µM) in data set [1], 4 µg/mL (≈ 8.63 µM) in data set [2] and 4 µg/mL (≈ 8.63 µM) in data set [3].

Regarding `CC(=O)NC[C@H]1CN(c2ccc(N3CCc4[nH]ncc4C3)c(F)c2)C(=O)O1` [Compound 10, acetamide, N-[[(5S)-3-[4-(1,4,6,7-tetrahydro-5H-pyrazolo[4,3-c]pyridin-5-yl)-3-fluorophenyl]-2-oxo-5-oxazolidinyl]methyl]-], the MIC in data set [1] came out at 16 µg/mL (≈ 42.9 µM); in data set [2] it was 8 µg/mL (≈ 21.4 µM); in data set [3], 8 µg/mL (≈ 21.4 µM).

In the case of `CC(=O)NC[C@H]1CN(c2ccc(N3CCc4c(cnn4C)C3)c(F)c2)C(=O)O1` [Compound 11, acetamide, N-[[(5S)-3-[4-(1,4,6,7-tetrahydro-1-methyl-5H-pyrazolo[4,3-c]pyridin-5-yl)-3-fluorophenyl]-2-oxo-5-oxazolidinyl]methyl]-], the figures for the MIC in data set [1], in data set [2] and in data set [3] were 16 µg/mL (≈ 41.3 µM), 8 µg/mL (≈ 20.6 µM) and 16 µg/mL (≈ 41.3 µM), respectively.

Broadly, the melting point is the temperature, or range, at which the solid turns liquid.
